Counter-ions that a name gives are not always drawn. Like-named read-outs stand apart in the source and are kept apart here. Non-standard residues stand in square brackets, D forms with d. Residues, ends and D or L forms follow the SMILES beside them. pGlu = O=C1CC[C@@H](C(=O)O)N1; Thz = O=C(O)[C@@H]1CSCN1
Tests used:
Type in all cases: biochemical
recombinant PRL-2 = target: T1, recombinant PRL-2 (Homo sapiens, UniProt Q12974); assay: In vitro phosphatase assay (DiFMUP hydrolysis), PRL-2;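 further: PRL-2 activity read as DiFMUP hydrolysis after 20 min at room temperature with drug, enzyme first pre-reduced at 4 °C for 20 min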
T1 construct: 6xHis (N, cleaved yes); made in house; host or cells: E. coli One Shot BL21 Star
T1 sequence (Q12974 1-167): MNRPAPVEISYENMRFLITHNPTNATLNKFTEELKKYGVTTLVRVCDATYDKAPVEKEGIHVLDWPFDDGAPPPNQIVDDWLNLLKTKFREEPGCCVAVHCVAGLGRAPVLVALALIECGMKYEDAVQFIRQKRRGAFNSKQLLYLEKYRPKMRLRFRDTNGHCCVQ
Procedure: Briefly, protein was diluted in reaction buffer and allowed to incubate at 4 °C for 20 min to allow for full reduction of the active site. DiFMUP, drug, and protein were added, and plates were incubated for 20 min at room temperature. Fluorescence intensities were measured on a Cytation 5 plate reader (Biotek) at an EX:360 nm and EM:460 nm. […] Inhibition selectivity for PRLs over a panel of other phosphatases was determined using PhosphataseProfiler (Eurofins, Cat # PP260).

recombinant PRL-1 = target: T2, recombinant PRL-1 (Homo sapiens, UniProt Q93096); assay: In vitro phosphatase assay (DiFMUP hydrolysis), PRL-1; further: test concentration or dose not given here
T2 construct: 6xHis (N, cleaved yes); made in house; host or cells: E. coli One Shot BL21 Star
T2 sequence (Q93096 1-173): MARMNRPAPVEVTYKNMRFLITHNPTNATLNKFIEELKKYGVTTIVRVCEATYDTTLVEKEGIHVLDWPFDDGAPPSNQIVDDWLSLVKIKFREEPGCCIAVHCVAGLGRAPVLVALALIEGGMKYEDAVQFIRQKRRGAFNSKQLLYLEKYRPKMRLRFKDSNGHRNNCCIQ

recombinant PRL-3 = target: T3, recombinant PRL-3 (Homo sapiens, UniProt O75365); assay: In vitro phosphatase assay (DiFMUP hydrolysis), PRL-3; further: test concentration or dose not given here
T3 construct: 6xHis (N, cleaved yes); made in house; host or cells: E. coli One Shot BL21 Star

[1] = FDA-approved drug screen, activity compared to DMSO
[2] = FDA-approved drug screen, compared to DMSO

T3 sequence (O75365 whole entry): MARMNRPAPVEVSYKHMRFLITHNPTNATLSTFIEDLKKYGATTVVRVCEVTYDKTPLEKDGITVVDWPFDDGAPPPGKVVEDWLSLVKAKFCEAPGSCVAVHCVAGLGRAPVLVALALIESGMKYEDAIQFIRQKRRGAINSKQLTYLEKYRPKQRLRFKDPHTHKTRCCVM

Compound	% Phosphatase Activity (compared to DMSO) PRL-2 (recombinant PRL-2; [2]) [%]	% Phosphatase Activity (compared to DMSO) PRL-1 (recombinant PRL-1; [2]) [%]	% Phosphatase Activity (compared to DMSO) PRL-3 (recombinant PRL-3; [2]) [%]	other results
N[C@@H]1CN(c2c(F)cc3c(=O)c(C(=O)O)cn([C@@H]4C[C@@H]4F)c3c2Cl)CC12CC2.O [Sitafloxacin Hydrate]				% Phosphatase Activity (compared to DMSO) PRL-2 (recombinant PRL-2; [1]): 90%; % Phosphatase Activity (compared to DMSO) PRL-1 (recombinant PRL-1; [1]): 91%; % Phosphatase Activity (compared to DMSO) PRL-3 (recombinant PRL-3; [1]): 81%
CC(=O)O[C@]1(C(C)=O)CC[C@H]2[C@@H]3C=C(C)C4=CC(=O)CC[C@]4(C)[C@H]3CC[C@@]21C [Megestrol Acetate]	92	86	67	
COC(=O)Nc1nc2ccc(C(=O)c3ccccc3)cc2[nH]1 [Mebendazole]	83	90	79	
CCCc1cc(=O)[nH]c(=S)[nH]1 [Propylthiouracil]				% Phosphatase Activity (compared to DMSO) PRL-2 (recombinant PRL-2): 93%; % Phosphatase Activity (compared to DMSO) PRL-1 (recombinant PRL-1): 94%; % Phosphatase Activity (compared to DMSO) PRL-3 (recombinant PRL-3): 91%
COc1ccc2c(c1)C(=O)N(CCc1ccc(S(=O)(=O)NC(=O)NC3CCCCC3)cc1)C(=O)C2(C)C [Gliquidone]	86	99	86	
CC[C@H]1OC(=O)C[C@@H](O)[C@H](C)[C@@H](O[C@@H]2O[C@H](C)[C@@H](O[C@H]3C[C@@](C)(O)[C@@H](O)[C@H](C)O3)[C@H](N(C)C)[C@H]2O)[C@@H](CC=O)C[C@@H](C)C(=O)/C=C/C(C)=C/[C@@H]1CO[C@@H]1O[C@H](C)[C@@H](O)[C@@H](OC)[C@H]1OC.O=C(O)C(O)C(O)C(=O)O [Tylosin tartrate]				% Phosphatase Activity (compared to DMSO) PRL-2 (recombinant PRL-2; [1]): 93%; % Phosphatase Activity (compared to DMSO) PRL-1 (recombinant PRL-1; [1]): 95%; % Phosphatase Activity (compared to DMSO) PRL-3 (recombinant PRL-3; [1]): 81%
Cc1cc(O)ccc1Cl [Chlorocresol]	101	89	77	
C[N+](C)(C)CCOC(N)=O [Carbachol]	100	91	82	
CC(=O)OCC(=O)NCCCOc1cccc(CN2CCCCC2)c1 [Roxatidine Acetate HCl]	111	96	95	
C[N+](C)(C)C[C@H](O)CC(=O)[O-] [L-carnitine]	103	102	83	
CC[C@H](C)C(=O)O[C@H]1CCC=C2C=C[C@H](C)[C@H](CC[C@@H]3C[C@@H](O)CC(=O)O3)[C@H]21 [Mevastatin]	89	88	71	
NCC[C@H](O)C(=O)N[C@@H]1C[C@H](N)[C@@H](O[C@H]2O[C@H](CN)[C@@H](O)[C@H](O)[C@H]2O)[C@H](O)[C@H]1O[C@H]1O[C@H](CO)[C@@H](O)[C@H](N)[C@H]1O [Amikacin disulfate]	152	96	110	
Cc1nc2ccc(CN(C)c3ccc(C(=O)N[C@@H](CCC(=O)O)C(=O)O)s3)cc2c(=O)[nH]1 [Raltitrexed]	71	80	71	
CC(=O)O[C@]1(C(C)=O)CC[C@H]2[C@@H]3C[C@H](C)C4=CC(=O)C=C[C@]4(C)[C@@]3(F)[C@@H](O)C[C@@]21C [Fluorometholone Acetate]	96	91	79	
O=C(O)c1cccnc1Nc1cccc(C(F)(F)F)c1 [Niflumic acid]	112	109	88	
NC(=O)OCC(COC(N)=O)c1ccccc1 [Felbamate]	97	103	71	
CCCOc1ccc(C(=O)OCCN(CC)CC)cc1N [Proparacaine HCl]	108	78	96	
C=C[C@]1(C)C[C@@H](OC(=O)CS[C@@H]2C[C@H]3CC[C@@H](C2)N3C)[C@]2(C)[C@H](C)CC[C@]3(CCC(=O)[C@H]32)[C@@H](C)[C@@H]1O [Retapamulin]	123	85	67	
CN[C@H]1C[C@@H](N)[C@H](O)[C@@H](O[C@@H]2O[C@H](CO)[C@H](O)[C@@H]3OC4(O[C@H]23)O[C@H]([C@@H](N)CO)[C@H](O)[C@H](O)[C@H]4O)[C@@H]1O (stereo partly drawn) [Hygromycin B]	98	91	103	

Compound	% Phosphatase Activity (compared to DMSO) PRL-2 (recombinant PRL-2; [2]) [%]	% Phosphatase Activity (compared to DMSO) PRL-1 (recombinant PRL-1; [2]) [%]	% Phosphatase Activity (compared to DMSO) PRL-3 (recombinant PRL-3; [2]) [%]	other results
CC(COc1ccccc1)N(CCCl)Cc1ccccc1 (stereo not drawn) [Phenoxybenzamine HCl]	112	106	81	
N[C@@H](CC(=O)N1CCn2c(nnc2C(F)(F)F)C1)Cc1cc(F)c(F)cc1F [Sitagliptin phosphate monohydrate]				% Phosphatase Activity (compared to DMSO) PRL-2 (recombinant PRL-2; [1]): 120%; % Phosphatase Activity (compared to DMSO) PRL-1 (recombinant PRL-1; [1]): 117%; % Phosphatase Activity (compared to DMSO) PRL-3 (recombinant PRL-3; [1]): 89%
C[C@]12C=CC(=O)C=C1CC[C@@H]1[C@@H]2C(=O)C[C@@]2(C)[C@H]1CC[C@]2(O)C(=O)CO [Prednisone]	91	98	80	
CNCCC(Oc1ccc(C(F)(F)F)cc1)c1ccccc1.Cl (stereo not drawn) [Fluoxetine HCl]	105	93	68	
CCC(=O)O[C@]1(C(=O)SCF)[C@H](C)C[C@H]2[C@@H]3C[C@H](F)C4=CC(=O)C=C[C@]4(C)[C@@]3(F)[C@@H](O)C[C@@]21C [Fluticasone propionate]	92	103	90	
CC[C@H]1[C@@H](O)[C@@H]2[C@H](CC[C@]3(C)[C@@H]([C@H](C)CCC(=O)O)CC[C@@H]23)[C@@]2(C)CC[C@@H](O)C[C@@H]12 [Obeticholic Acid]	72	86	90	
Clc1ccc(COC(Cn2ccnc2)c2ccc(Cl)cc2Cl)cc1 (stereo not drawn) [Econazole nitrate]	103	107	93	
CN(CCOc1ccc(CC2SC(=O)NC2=O)cc1)c1ccccn1 (stereo not drawn) [Rosiglitazone maleate]	113	104	87	
CCCc1nc2c(C)cc(-c3nc4ccccc4n3C)cc2n1Cc1ccc(-c2ccccc2C(=O)O)cc1 [Telmisartan]				% Phosphatase Activity (compared to DMSO) PRL-2 (recombinant PRL-2; [1]): 77%; % Phosphatase Activity (compared to DMSO) PRL-1 (recombinant PRL-1; [1]): 86%; % Phosphatase Activity (compared to DMSO) PRL-3 (recombinant PRL-3; [1]): 92%
Cc1cccc([C@H](C)c2c[nH]cn2)c1C.Cl [Dexmedetomidine HCl (Precedex)]				% Phosphatase Activity (compared to DMSO) PRL-2 (recombinant PRL-2): 120%; % Phosphatase Activity (compared to DMSO) PRL-1 (recombinant PRL-1): 111%; % Phosphatase Activity (compared to DMSO) PRL-3 (recombinant PRL-3): 90%
CN(C)CCCN1c2ccccc2CCc2ccc(Cl)cc21 [Clomipramine HCl]	114	108	96	
Clc1ccc(C(Cn2ccnc2)OCc2csc3c(Cl)cccc23)c(Cl)c1 (stereo not drawn) [Sertaconazole nitrate]				% Phosphatase Activity (compared to DMSO) PRL-2 (recombinant PRL-2; [1]): 101%; % Phosphatase Activity (compared to DMSO) PRL-1 (recombinant PRL-1; [1]): 110%; % Phosphatase Activity (compared to DMSO) PRL-3 (recombinant PRL-3; [1]): 99%
Cl.NCC1(CC(=O)O)CCCCC1 [Gabapentin HCl]	87	99	85	
O=C(O)c1cc(=O)c2ccccc2o1 [Chromocarb]	102	95	85	
Tyloxapol				% Phosphatase Activity (compared to DMSO) PRL-2 (recombinant PRL-2; [1]): 83%; % Phosphatase Activity (compared to DMSO) PRL-1 (recombinant PRL-1; [1]): 89%; % Phosphatase Activity (compared to DMSO) PRL-3 (recombinant PRL-3; [1]): 90%
C[C@H](Oc1ccc(S(C)(=O)=O)cc1C(=O)N1CCN(c2ncc(C(F)(F)F)cc2F)CC1)C(F)(F)F [Bitopertin]	73	93	82	
O=C1CC[C@@H](C(=O)N2CSC[C@H]2C(=O)O)N1 [Pidotimod] ([pGlu]-[Thz]-OH)	103	113	83	
COc1ccccc1OCC(O)CN1CCN(CC(=O)Nc2c(C)cccc2C)CC1 (stereo not drawn) [Ranolazine]	99	90	118	

From paper PMC8119466, “A screen of FDA-approved drugs identifies inhibitors of protein tyrosine phosphatase 4A3 (PTP4A3 or PRL-3)” (Scientific Reports, 2021)
